Measurements as given in ChEMBL document CHEMBL4020732, “Synthesis, structural characterization and biological activity of novel Knoevenagel condensates on DLD-1 human colon carcinoma” (Bioorg Med Chem Lett, 2017).
Active and inactive are the calls of the source. The rule behind the calls is not given here.

Legend:
[1] = Antioxidant activity of the compound assessed as DPPH radical scavenging activity at 1 mM after 5 mins by spectrophotometric method; assay type: functional
[2] = Antioxidant activity of the compound assessed as DPPH radical scavenging activity after 5 mins by spectrophotometric method; assay type: functional; set-up: unit not given here
[3] = Antioxidant activity assessed as ABTS radical scavenging activity at 100 uM after 5 mins by spectrophotometric method; assay type: functional
[4] = Antioxidant activity assessed as ABTS radical scavenging activity after 5 mins by spectrophotometric method; assay type: functional; set-up: unit not given here
DLD-1 [5] = test: Cytotoxicity against human DLD1 cells by MTT assay; assay type: functional, cell-based
DLD-1 [6] = test: Antioxidant activity in human DLD1 cells assessed as glutathione reactivity by measuring GSH level per mg protein by ortho-phthalaldehyde probe based fluorescence spectrometric method (reference value: 2.19 +/- 0.18 nmol); assay type: functional
DLD-1 [7] = test: Antioxidant activity in human DLD1 cells assessed as glutathione reactivity by measuring GSSG level per mg protein by ortho-phthalaldehyde probe based fluorescence spectrometric method (reference value: 0.69 nmol); assay type: functional
DLD-1 [8] = test: Antioxidant activity in human DLD1 cells assessed as ratio of reduced glutathione to oxidized glutathione by ortho-phthalaldehyde probe based fluorescence spectrometric method (reference value: 3.19 +/- 0.2); assay type: functional
[9] = biological target: Superoxide dismutase 1/2 (Homo sapiens) (UniProt P00441+P04179); test: Inhibition of SOD1/SOD2 in human DLD1 cells at 100 uM using xanthine as substrate pretreated for 24 hrs followed by substrate addition measured after 5 mins by NBT dye based spectrophotometric method; assay type: cell-based
DLD-1 [10] = test: Antiproliferative activity against human DLD1 cells at 100 uM after 4 to 48 hrs by Alamar blue assay; assay type: functional, cell-based
[11] = Glutathione reactivity assessed as rate constant for total GSH loss by UV-vis spectrophotometric method
[12] = biological target: T1, Extracellular superoxide dismutase [Cu-Zn] (Homo sapiens) (UniProt P08294); test: Inhibition of SOD3 in human DLD1 cells at 100 uM using xanthine as substrate pretreated for 24 hrs followed by substrate addition after 5 mins by NBT dye based spectrophotometric method; assay type: cell-based
T1 sequence (whole entry): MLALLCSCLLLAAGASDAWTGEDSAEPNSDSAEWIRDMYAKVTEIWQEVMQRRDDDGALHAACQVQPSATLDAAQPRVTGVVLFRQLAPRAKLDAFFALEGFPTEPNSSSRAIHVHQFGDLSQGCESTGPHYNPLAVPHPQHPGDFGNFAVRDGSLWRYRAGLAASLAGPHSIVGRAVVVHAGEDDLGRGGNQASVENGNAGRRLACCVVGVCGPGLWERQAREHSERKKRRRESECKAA

DLD-1 [13] = test: Down regulation of MRP1 expression in human DLD1 cells at 100 uM after 24 hrs by fluorescence assay; assay type: functional, cell-based
[14] = biological target: T2, Superoxide dismutase [Mn], mitochondrial (Homo sapiens) (UniProt P04179); test: Inhibition of mitochondrial SOD2 in human DLD1 cells at 100 uM using xanthine as substrate pretreated for 24 hrs followed by substrate addition after 5 mins by NBT dye based spectrophotometric method; assay type: cell-based
T2 sequence (whole entry): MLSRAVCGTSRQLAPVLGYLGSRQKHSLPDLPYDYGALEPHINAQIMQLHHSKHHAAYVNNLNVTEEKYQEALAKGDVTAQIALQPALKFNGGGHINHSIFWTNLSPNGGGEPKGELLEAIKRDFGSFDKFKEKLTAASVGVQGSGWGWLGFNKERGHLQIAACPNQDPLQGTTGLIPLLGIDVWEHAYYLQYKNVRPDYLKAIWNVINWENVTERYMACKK

Superoxide dismutase 1/2 (Homo sapiens), sequence (P00441 whole entry, looked up, one chain of several): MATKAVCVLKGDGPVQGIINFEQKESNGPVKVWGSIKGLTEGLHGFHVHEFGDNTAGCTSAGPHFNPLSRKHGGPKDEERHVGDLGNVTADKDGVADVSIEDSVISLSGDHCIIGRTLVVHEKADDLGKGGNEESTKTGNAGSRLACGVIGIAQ

Row | Compound | 1/IC50 [2] | IC50 [2] [µM] | 1/IC50 [4] | IC50 [4] [µM] | inhibition [9] | inhibition [12] | inhibition [14] | inhibition [1] [%] | inhibition [3] [%] | IC50 (DLD-1 [5]) [µM] | Activity (DLD-1 [6]) [nmol] | Activity (DLD-1 [7]) [nmol] | Ratio (DLD-1 [8]) | Activity (DLD-1 [10]) | Activity [11] | Activity (DLD-1 [13]) | K [11] [M⁻¹ s⁻¹]
1 | CCOc1cc(/C=C/C(=O)C(=Cc2ccc(OCC)c(OCC)c2)C(=O)/C=C/c2ccc(O)c(OCC)c2)ccc1O | 0.016 | 61.6 | 0.049 | 20.2 | inactive | inactive |  | 69 | 71.4 | 3.45 | 2.12 | 3.24 | 0.65 | Active | Active |  | 
2 | CCOc1cc(C=C(C(=O)/C=C/c2ccc(O)c(OCC)c2)C(=O)/C=C/c2ccc(O)c(OCC)c2)ccc1O | 0.01 | 96.7 | 0.195 | 5.14 | inactive | inactive |  | 50.6 | 88.5 | 1.36 | 3.2 | 0.84 | 3.8 | Active | Active |  | 
3 | CCOc1cc(/C=C/C(=O)C(=Cc2ccccc2)C(=O)/C=C/c2ccc(O)c(OCC)c2)ccc1O | 0.011 | 91.4 | 0.049 | 20.4 | Active |  | Active | 54.7 | 60.5 | 5.06 | 3.27 | 0.48 | 6.89 | Active | Active | Active | 
4 | CCOc1cc(/C=C/C(=O)C(=Cc2ccc(O)c(O)c2)C(=O)/C=C/c2ccc(O)c(OCC)c2)ccc1O | 0.04 | 25.2 | 0.275 | 3.63 | Active | Active |  | 81.2 | 98.1 | 5.1 | 4.41 | 1.16 | 3.78 | Active | Active |  | 
5 | C/C=C(/C)C(C)=O |  |  |  |  |  |  |  |  |  |  |  |  |  |  |  |  | 0.013
6 | C=CC(=O)OCCCC |  |  |  |  |  |  |  |  |  |  |  |  |  |  |  |  | 0.142
7 | COc1cc(/C=C/C(=O)C(=Cc2ccccc2)C(=O)/C=C/c2ccc(O)c(OC)c2)ccc1O | 0.012 | 84.4 | 0.116 | 8.58 | inactive | inactive |  | 58.6 | 75.1 | 5.45 | 4.47 | 1.4 | 3.19 | Active | Active | Active | 
8 | CCOc1cc(/C=C/C(=O)C(=Cc2ccc(OC)c(OC)c2)C(=O)/C=C/c2ccc(O)c(OCC)c2)ccc1O | 0.019 | 53.2 | 0.088 | 11.3 | Active | inactive | Active | 73.5 | 80.6 | 42 | 3.24 | 0.49 | 6.59 | Active | Active |  | 
9 | CCOc1cc(/C=C/C(=O)CC(=O)/C=C/c2ccc(O)c(OCC)c2)ccc1O [ETHYL CURCUMIN] | 0.041 | 24.5 | 0.156 | 6.4 |  |  |  | 93.4 | 96.1 |  |  |  |  |  |  |  | 
10 | COc1cc(/C=C/C(=O)CC(=O)/C=C/c2ccc(O)c(OC)c2)ccc1O [CURCUMIN] | 0.038 | 26.5 | 0.177 | 5.66 |  |  |  | 91.7 | 95 |  |  |  |  |  |  |  | 
11 | COc1cc(C=C(C(=O)/C=C/c2ccc(O)c(OC)c2)C(=O)/C=C/c2ccc(O)c(OC)c2)ccc1O | 0.014 | 72.4 | 0.305 | 3.28 | Active |  | Active | 59.1 | 97.9 | 5.06 | 4.56 | 2.8 | 1.63 | Active | Active | Active | 
12 | C#CC(=O)OCC |  |  |  |  |  |  |  |  |  |  |  |  |  |  |  |  | 1.75

More lines, in order of falling IC50 [2], values ahead:

Row | 1/IC50 [2] | IC50 [2] [µM] | 1/IC50 [4] | IC50 [4] [µM] | inhibition [9] | inhibition [12] | inhibition [14] | Compound | inhibition [1] [%] | inhibition [3] [%] | IC50 (DLD-1 [5]) [µM] | Activity (DLD-1 [6]) [nmol] | Activity (DLD-1 [7]) [nmol] | Ratio (DLD-1 [8]) | Activity (DLD-1 [10]) | Activity [11] | Activity (DLD-1 [13]) | K [11] [M⁻¹ s⁻¹]
13 | 0.01 | 123 | 0.251 | 3.98 | Active | inactive |  | CCOc1cc(C=C(C(=O)/C=C/c2ccc(O)c(OC)c2)C(=O)/C=C/c2ccc(O)c(OC)c2)ccc1O | 42.3 | 94.3 | 4.26 | 5.12 | 1.02 | 5 | Active | Active | Active | 
14 | 0.014 | 73 | 0.1 | 10 | inactive | inactive | Active | CCOc1ccc(C=C(C(=O)/C=C/c2ccc(O)c(OC)c2)C(=O)/C=C/c2ccc(O)c(OC)c2)cc1OCC | 61.9 | 74.9 | 4.12 | 4.27 | 1.88 | 2.28 | Active | Active | Active | 
15 | 0.014 | 71 | 0.148 | 6.76 | Active | inactive | Active | COc1cc(/C=C/C(=O)C(=Cc2ccc(OC)c(OC)c2)C(=O)/C=C/c2ccc(O)c(OC)c2)ccc1O | 64.8 | 83.6 | 3.07 | 3.93 | 4.21 | 0.93 | Active | Active | Active | 
16 | 0.017 | 60.5 | 0.187 | 5.36 |  | inactive |  | CCOc1cc(/C=C/C(=O)C(=Cc2ccc(O)c(OC)c2)C(=O)/C=C/c2ccc(O)c(OCC)c2)ccc1O | 63 | 96.6 | 9.63 | 9.75 | 4.3 | 2.27 | Active | Active | Active | 
17 | 0.021 | 48.7 | 0.158 | 6.32 | Active |  |  | COc1cc(/C=C/C(=O)C(=Cc2ccc(O)cc2)C(=O)/C=C/c2ccc(O)c(OC)c2)ccc1O | 73.8 | 89.2 | 4.08 | 4.8 | 1.2 | 3.99 | Active | Active | Active | 
18 | 0.021 | 48 | 0.068 | 14.8 | inactive | inactive | inactive | CCOc1cc(/C=C/C(=O)C(=Cc2ccc(O)cc2)C(=O)/C=C/c2ccc(O)c(OCC)c2)ccc1O | 74.4 | 87.7 | 20.3 | 3.59 | 3.13 | 1.15 | Active | Active | Active | 
19 | 0.097 | 10.3 | 0.455 | 2.2 | Active |  |  | COc1cc(/C=C/C(=O)C(=Cc2ccc(O)c(O)c2)C(=O)/C=C/c2ccc(O)c(OC)c2)ccc1O | 92.5 | 98.2 | 17.6 | 2.6 | 0.5 | 5.17 | Active | inactive |  | 
